Reference: patent US20250108038A1 (priority 2023, published 2025)
“And” between values parts separate entries of the source, which are not always exact repeats. Identical values can stand only once.

Assay: Pharmacokinetics after single oral administration to beagle dogs;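 on AUC0-inf of Compound A (as titled): compound A is measured in plasma as a metabolite of the dosed analog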;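 on AUC0-last of Compound A (as titled): compound A is measured in plasma as a metabolite of the dosed analog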;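 on T1/2 of Compound A (as titled): compound A is measured in plasma as a metabolite of the dosed analog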;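 on Tlast of Compound A (as titled): compound A is measured in plasma as a metabolite of the dosed analog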
Format: in vivo
Conditions: for plasma concentration of Compound I-17/I-19: single PO 10 mg/kg; for plasma concentration of Compound I-17/I-19 (as titled): single PO 80 mg/kg (as titled)
Protocol: The concentrations of the analytes in the plasma were quantified by liquid chromatography tandem mass spectrometry (LC-MS/MS).
The bioanalytical assay provided a lower limit of quantification (LLOQ) of 1.0 ng/mL and an upper limit of quantification (ULOQ) of 3000 ng/mL for all the analytes. The data of plasma concentration vs. time were analyzed using Phoenix WinNonlin 8.3 to determine the PK properties of the analytes.
The test articles were administered orally by gavage. The nominal dose volume was 5 mL/kg for both analogs.
The observation included appearance, behavior, morbidity and mortality.
Approximately 0.5 mL blood was collected at each scheduled time point from the peripheral veins.
The plasma samples were placed in microcentrifuge tubes and stored at −70+10° C. until analysis.

[1] = after single PO 10 mg/kg of Compound I-17/I-19, female individual
[2] = after single PO 10 mg/kg of Compound I-17/I-19, female individual, 10 mg/kg
[3] = after single PO 10 mg/kg of Compound I-17/I-19, female mean
[4] = after single PO 10 mg/kg of Compound I-17/I-19, male individual, 10 mg/kg
[5] = after single PO 10 mg/kg of Compound I-17/I-19, male mean
[6] = after single PO 80 mg/kg (so in the source) of Compound I-17/I-19, female individual, 80 mg/kg
[7] = after single PO 80 mg/kg (so in the source) of Compound I-17/I-19, female mean
[8] = after single PO 80 mg/kg (so in the source) of Compound I-17/I-19, female mean, 80 mg/kg
[9] = after single PO 80 mg/kg (so in the source) of Compound I-17/I-19, male individual
[10] = after single PO 80 mg/kg (so in the source) of Compound I-17/I-19, male individual, 80 mg/kg
[11] = after single PO 80 mg/kg (so in the source) of Compound I-17/I-19, male mean
[12] = oral 10 mg/kg, female dogs, 10 mg/kg

CC(C)/C=C/COC1(c2ccc(Cl)cc2)c2ccccc2C2=NCCN21 (stereo not shown) [Compound I-17]
T1/2 of Compound A (as titled) [1]: 5.87 h
Tlast of Compound A (as titled) [1]: 24.0 h
AUC0-inf of Compound A (as titled) [2]: 0.756 µg·h/mL and 0.946 µg·h/mL
AUC0-last of Compound A (as titled) [2]: 0.736 µg·h/mL and 0.915 µg·h/mL
Cmax of Compound A (as titled) [2]: 0.293 µg/mL and 0.252 µg/mL
MRT0-inf of Compound A (as titled) [2]: 4.62 h and 5.07 h
MRT0-last of Compound A (as titled) [2]: 3.88 h and 4.14 h
T1/2 of Compound A (as titled) [2]: 6.33 h
Tmax of Compound A (as titled) [2]: 1.00 h and 2.00 h
AUC0-inf of Compound A (as titled) [3]: 0.851 µg·h/mL
AUC0-last of Compound A (as titled) [3]: 0.826 µg·h/mL
Cmax of Compound A (as titled) [3]: 0.272 µg/mL
MRT0-inf of Compound A (as titled) [3]: 4.84 h
MRT0-last of Compound A (as titled) [3]: 4.01 h
T1/2 of Compound A (as titled) [3]: 6.10 h
Tlast of Compound A (as titled) [3]: 24.0 h
Tmax of Compound A (as titled) [3]: 1.50 h
Tmax of Compound A (as titled) (after single PO 10 mg/kg of Compound I-17/I-19, male individual): 1.00 h
AUC0-inf of Compound A (as titled) [4]: 0.229 µg·h/mL and 0.522 µg·h/mL
AUC0-last of Compound A (as titled) [4]: 0.209 µg·h/mL and 0.513 µg·h/mL
Cmax of Compound A (as titled) [4]: 0.089 µg/mL and 0.212 µg/mL
MRT0-inf of Compound A (as titled) [4]: 3.07 h and 3.86 h
MRT0-last of Compound A (as titled) [4]: 2.15 h and 3.33 h
T1/2 of Compound A (as titled) [4]: 3.08 h and 5.70 h
Tlast of Compound A (as titled) [4]: 8.00 h and 24.0 h
AUC0-inf of Compound A (as titled) [5]: 0.376 µg·h/mL
AUC0-last of Compound A (as titled) [5]: 0.361 µg·h/mL
Cmax of Compound A (as titled) [5]: 0.151 µg/mL
MRT0-inf of Compound A (as titled) [5]: 3.46 h
MRT0-last of Compound A (as titled) [5]: 2.74 h
T1/2 of Compound A (as titled) [5]: 4.39 h
Tlast of Compound A (as titled) [5]: 16.0 h
Tmax of Compound A (as titled) [5]: 1.00 h
T1/2 of Compound A (after single PO 80 mg/kg (so in the source) of Compound I-17/I-19, female individual): 24.0 h
Cmax of Compound A [6]: 0.004 µg/mL and 0.002 µg/mL
MRT0-inf of Compound A [6]: 0.989 h and 0.999 h
MRT0-last of Compound A [6]: 11.2 h and 11.5 h
Tmax of Compound A [6]: 7.07 h and 7.31 h
MRT0-inf of Compound A [7]: 0.994 h
Tlast of Compound A [7]: 323 h
AUC0-last of Compound A [8]: 0.323 µg·h/mL
MRT0-last of Compound A [8]: 11.3 h
Tlast of Compound A [9]: 24.0 h
Tmax of Compound A [9]: 2.00 h
AUC0-inf of Compound A [10]: 0.278 µg·h/mL and 0.298 µg·h/mL
AUC0-last of Compound A [10]: 0.258 µg·h/mL and 0.278 µg·h/mL
Cmax of Compound A [10]: 0.0259 µg/mL and 0.0316 µg/mL
MRT0-inf of Compound A [10]: 9.72 h and 9.19 h
MRT0-last of Compound A [10]: 7.90 h and 7.43 h
T1/2 of Compound A [10]: 6.33 h and 6.23 h
AUC0-inf of Compound A [11]: 0.288 µg·h/mL
AUC0-last of Compound A [11]: 0.268 µg·h/mL
Cmax of Compound A [11]: 0.0288 µg/mL
MRT0-inf of Compound A [11]: 9.45 h
MRT0-last of Compound A [11]: 7.66 h
T1/2 of Compound A [11]: 6.28 h
Tlast of Compound A [11]: 24.0 h
Tmax of Compound A [11]: 2.00 h
Cmax of the analog (Compound I-17/I-19) (oral 10 mg/kg, female dogs): 272 ng/mL
T1/2 of the analog (Compound I-17/I-19) (oral 10 mg/kg, female dogs): 6.10 hours
Tmax of the analog (Compound I-17/I-19) (oral 10 mg/kg, female dogs): 1.5 hour
AUC0-last of the analog (Compound I-17/I-19) [12]: 826 ng·h/mL and 836 ng·h/mL
MRT0-last of the analog (Compound I-17/I-19) [12]: 4.01 hours and 2.47 hours
Cmax of the analog (Compound I-17/I-19) (oral 10 mg/kg, male dogs): 151 ng/mL
T1/2 of the analog (Compound I-17/I-19) (oral 10 mg/kg, male dogs): 4.39 hours
Tmax of the analog (Compound I-17/I-19) (oral 10 mg/kg, male dogs): 1 hour
MRT0-last of the analog (Compound I-17/I-19) (oral 10 mg/kg, male dogs, 10 mg/kg): 2.74 hours and 2.30 hours
plasma concentration of Compound I-17/I-19 (0.500 h, female individual, 10 mg/kg): 0.128 µg/mL and 0.106 µg/mL
plasma concentration of Compound I-17/I-19 (0.500 h, female mean): 0.117 µg/mL
plasma concentration of Compound I-17/I-19 (0.500 h, male individual, 10 mg/kg): 0.0735 µg/mL and 0.176 µg/mL
plasma concentration of Compound I-17/I-19 (0.500 h, male mean): 0.125 µg/mL
plasma concentration of Compound I-17/I-19 ([…] h, female individual, 10 mg/kg): 0.293 µg/mL and 0.236 µg/mL
plasma concentration of Compound I-17/I-19 ([…] h, female mean): 0.265 µg/mL
plasma concentration of Compound I-17/I-19 ([…] h, male individual, 10 mg/kg): 0.089 µg/mL and 0.212 µg/mL
plasma concentration of Compound I-17/I-19 ([…] h, male mean): 0.151 µg/mL
plasma concentration of Compound I-17/I-19 (2.00 h, female individual, 10 mg/kg): 0.164 µg/mL and 0.252 µg/mL
plasma concentration of Compound I-17/I-19 (2.00 h, female mean): 0.208 µg/mL
plasma concentration of Compound I-17/I-19 (2.00 h, male individual, 10 mg/kg): 0.051 µg/mL and 0.101 µg/mL
plasma concentration of Compound I-17/I-19 (2.00 h, male mean): 0.0758 µg/mL
plasma concentration of Compound I-17/I-19 (4.00 h, female individual, 10 mg/kg): 0.043 µg/mL and 0.0774 µg/mL
plasma concentration of Compound I-17/I-19 (4.00 h, female mean): 0.0602 µg/mL
plasma concentration of Compound I-17/I-19 (4.00 h, male individual, 10 mg/kg): 0.0112 µg/mL and 0.0265 µg/mL
plasma concentration of Compound I-17/I-19 (4.00 h, male mean): 0.0189 µg/mL
plasma concentration of Compound I-17/I-19 (6.00 h, female individual, 10 mg/kg): 0.0208 µg/mL and 0.0282 µg/mL
plasma concentration of Compound I-17/I-19 (6.00 h, female mean): 0.0245 µg/mL
plasma concentration of Compound I-17/I-19 (6.00 h, male individual, 10 mg/kg): 0.00677 µg/mL and 0.0102 µg/mL
plasma concentration of Compound I-17/I-19 (6.00 h, male mean): 0.00847 µg/mL
plasma concentration of Compound I-17/I-19 (8.00 h, female individual, 10 mg/kg): 0.0136 µg/mL and 0.015 µg/mL
plasma concentration of Compound I-17/I-19 (8.00 h, female mean): 0.0143 µg/mL
plasma concentration of Compound I-17/I-19 (8.00 h, male individual, 10 mg/kg): 0.00457 µg/mL and 0.00839 µg/mL
plasma concentration of Compound I-17/I-19 (8.00 h, male mean): 0.00648 µg/mL
plasma concentration of Compound I-17/I-19 (24.0 h, female individual, 10 mg/kg): 0.00229 µg/mL and 0.00332 µg/mL
plasma concentration of Compound I-17/I-19 (24.0 h, female mean): 0.00281 µg/mL
plasma concentration of Compound I-17/I-19 (24.0 h, male individual): 0.00116 µg/mL
plasma concentration of Compound I-17/I-19 (24.0 h, male individual, 10 mg/kg): BQL
plasma concentration of Compound I-17/I-19 (as titled) (0.500 h, female individual): 0.00544 µg/mL
plasma concentration of Compound I-17/I-19 (as titled) (0.500 h, female individual, 80 mg/kg): BQL
plasma concentration of Compound I-17/I-19 (as titled) (0.500 h, male individual, 80 mg/kg): 0.00745 µg/mL and 0.0138 µg/mL
plasma concentration of Compound I-17/I-19 (as titled) (0.500 h, male mean): 0.0106 µg/mL
plasma concentration of Compound I-17/I-19 (as titled) (2.00 h, female individual, 80 mg/kg): 0.033 µg/mL and 0.0264 µg/mL
plasma concentration of Compound I-17/I-19 (as titled) (2.00 h, female mean): 0.0297 µg/mL
plasma concentration of Compound I-17/I-19 (as titled) (2.00 h, male individual, 80 mg/kg): 0.0259 µg/mL and 0.0316 µg/mL
plasma concentration of Compound I-17/I-19 (as titled) (2.00 h, male mean): 0.0288 µg/mL
plasma concentration of Compound I-17/I-19 (as titled) (4.00 h, female individual, 80 mg/kg): 0.0355 µg/mL and 0.0254 µg/mL
plasma concentration of Compound I-17/I-19 (as titled) (4.00 h, female mean): 0.0305 µg/mL
plasma concentration of Compound I-17/I-19 (as titled) (4.00 h, male individual, 80 mg/kg): 0.0256 µg/mL and 0.029 µg/mL
plasma concentration of Compound I-17/I-19 (as titled) (4.00 h, male mean): 0.0273 µg/mL
plasma concentration of Compound I-17/I-19 (as titled) (6.00 h, female individual, 80 mg/kg): 0.0229 µg/mL and 0.0181 µg/mL
plasma concentration of Compound I-17/I-19 (as titled) (6.00 h, female mean): 0.0205 µg/mL
plasma concentration of Compound I-17/I-19 (as titled) (6.00 h, male individual, 80 mg/kg): 0.0142 µg/mL and 0.0167 µg/mL
plasma concentration of Compound I-17/I-19 (as titled) (6.00 h, male mean): 0.0154 µg/mL
plasma concentration of Compound I-17/I-19 (as titled) (8.00 h, female individual, 80 mg/kg): 0.0218 µg/mL and 0.0144 µg/mL
plasma concentration of Compound I-17/I-19 (as titled) (8.00 h, female mean): 0.0181 µg/mL
plasma concentration of Compound I-17/I-19 (as titled) (8.00 h, male individual, 80 mg/kg): 0.0149 µg/mL and 0.0137 µg/mL
plasma concentration of Compound I-17/I-19 (as titled) (8.00 h, male mean): 0.0143 µg/mL
plasma concentration of Compound I-17/I-19 (as titled) (24.0 h, female individual, 80 mg/kg): 0.00417 µg/mL and 0.00323 µg/mL
plasma concentration of Compound I-17/I-19 (as titled) (24.0 h, female mean): 0.0037 µg/mL
plasma concentration of Compound I-17/I-19 (as titled) (24.0 h, male individual, 80 mg/kg): 0.0022 µg/mL and 0.00228 µg/mL
plasma concentration of Compound I-17/I-19 (as titled) (24.0 h, male mean): 0.00224 µg/mL
plasma concentration of Compound I-17/I-19 (as titled) ([…] h, female mean): 0.0159 µg/mL
plasma concentration of Compound I-17/I-19 (as titled) ([…] h, male mean): 0.0222 µg/mL
